“Also recorded” adds a separate entry of the source. Residues, ends and D or L forms follow the SMILES beside them. *: point of attachment. Cbz = O=C(OCc1ccccc1)*; CH2F = FC*
Experiments:
[1] = tested on: multiple mouse and human cancer cell lines; assay: TNFα-mediated killing in a panel of cancer cell lines with or without autophagy inhibitor; assay type: cell-based; conditions: 10 ng/ml TNFα, 5 μM inhibitor, 24 hours, EMT6, LL/2, CT26, Colon26, BT-20, Me-180, MDA-MB-361, ZR-75-1
Method: (§1) The effects of TNFα, TRAIL, doxorubicin or paclitaxel on cell viability were assessed following 24 hour incubations at the indicated concentrations. The effects of 5 μM autophinib or SAR-405 on TNFα (10 ng/ml) or TRAIL (10 ng/ml or 50 ng/ml) induced killing were assessed following 24 hour incubations unless otherwise indicated. In all cases, cell viability was measured using CCK8 cell counting kit-8 (CCK-8) reagent, which is reduced by dehydrogenase activities in cells to give a yellow-colored formazan dye (Dojindo). The absorbance was measured using a SpectraMax M3 microplate reader (Molecular Devices).

[2] = tested on: ZR-75-1 human breast cancer cells; assay: Western blots of ZR-75-1 cells (p62, caspase-8); assay type: cell-based; conditions: 5 μM inhibitor, 16 hours; for p62 levels: ZR-75-1 cells; for TNFα-induced activation of caspase-8: human breast cancer cells ZR-75-1, 10 ng/ml TNFα
Method: (§2) Whole cell lysates were prepared in tris-glycine SDS sample buffer (ThermoFisher) containing 5% 2-mercaptoethanol. Western blotting was performed by conventional techniques using tris-glycine polyacrylamide SDS gels (ThermoFisher) and PVDF membranes (BioRad). Blots were blocked in 5% milk powder and 0.5% Tween-20 in TBS and then incubated overnight with primary antibodies. After addition of secondary antibodies, membranes were incubated with SuperSignal West Pico Plus or Femto substrate (ThermoFisher) and luminescence was captured with a C300 imager (Azure Biosystems). Primary antibodies against TAK1, Rbck1, Re1A p65, Rb1cc1, Atg12, cleaved caspase-8, procaspase-8, RIPK1, RIPK1 phospo-Ser321, RIPK1 phospho-Ser166, Iκ-Bα, A20, p62, phospho-p65, LC3B, TNFR1 (CST), Atg9a (Novus), cIAP1 (Enzo), β2M (ThermoFisher), FADD and ICAM (Abcam) were used. Horseradish peroxidase-conjugated β-Actin antibody and secondary antibodies against mouse IgG, rabbit IgG and goat IgG were from Santa Cruz Biotechnology.

[3] = tested on: ZR-75-1 human breast cancer cells; assay: CD3 bispecific antibody-induced killing of ZR-75-1 cells by human T cells; assay type: cell-based; conditions: 12 ng/ml bispecific antibody, 5 μM SAR-405, 24 hours
Source text: CD8^+ T cells were isolated from spleens and lymph nodes of 6-8 week old male OT-1 mice. These mice contain transgenic inserts for mouse Tcra-V2 and Tcrb-V5 genes. The transgenic T cell receptor was designed to recognize ovalbumin peptide residues 257-264 in the context of H-2Kb MHC class I protein. In some experiments, human CD8+ T cells were isolated from PBMCs. T cells were activated in vitro with CD3/CD28 beads at a 1:2 bead:cell ratio for 2-3 days. T cells were activated in RPMI-1640 medium containing 20 ng/ml mouse IL-2, 10% heat inactivated fetal bovine serum, 20 mM HEPES, 2 mM L-glutamine, 1 mM sodium pyruvate, 0.05 mM 2-mercaptoethanol and 50 U/ml penicillin/streptomycin. For human tumor cell killing experiments using CD3 bispecific antibody, human T cells were isolated from peripheral blood mononuclear cells (PBMCs) (ReachBio) using Dynabeads Untouched Human T Cells Kit (Thermo Fisher Scientific).
Human ZR-75-1 cells were seeded at 100,000 cells per 24 well. After 24 hours, cells were incubated with activated CD8^+ T cells (isolated from human PBMCs) at the indicated E:T ratios for 24 hours in the presence of 12 ng/ml breast tumor antigen×CD3 or control (doesn't bind to ZR-75-1 cells) bispecific antibodies in the absence or presence of 5 μM autophagy inhibitor SAR-405.

[4] = tested on: MC38 cells; assay: TNFα-induced killing of MC38 cells, cell viability (CCK-8); assay type: cell-based, mouse; conditions: for TNFα-mediated killing in Rb1cc1 KO cells: Rb1cc1 KO MC38 cells, 25 μM z-VAD-FMK or 50 μM Nec-1
Method: as §1

[5] = tested on: MC38 cells; assay: Western blots of MC38 cell lysates (caspase-8, p62, Iκ-Bα, phospho-S6); assay type: cell-based, mouse; conditions: 5 μM autophinib
Method: as §2

[6] = tested on: HCT-116 and HeLa human cancer cells; assay: TNFα- and TRAIL-mediated killing of human cancer cells with or without autophinib, cell viability; assay type: cell-based; conditions: 5 μM autophinib, 24 hours
Method: as §1

[7] = tested on: HCT-116 and HeLa human cancer cells; assay: Western blots of HCT-116 and HeLa cells after TRAIL with or without autophinib; assay type: cell-based; conditions: human cancer cells (HCT-116, HeLa), 10 or 50 ng/ml TRAIL, 24 hours
Method: as §2

[8] = tested on: CT26, B16F10, 4T1, EMT6, MC38 tumor cell lines; assay: TNFα-induced caspase-8 activation and apoptosis in a panel of tumor cell lines; assay type: cell-based, mouse; conditions: 24 hours
Method: as §1
Whole cell lysates were prepared in tris-glycine SDS sample buffer (ThermoFisher) containing 5% 2-mercaptoethanol. Western blotting was performed by conventional techniques using tris-glycine polyacrylamide SDS gels (ThermoFisher) and PVDF membranes (BioRad). Blots were blocked in 5% milk powder and 0.5% Tween-20 in TBS and then incubated overnight with primary antibodies. After addition of secondary antibodies, membranes were incubated with SuperSignal West Pico Plus or Femto substrate (ThermoFisher) and luminescence was captured with a C300 imager (Azure Biosystems). […]

With `C[C@@H]1COCCN1c1cc(=O)n2c(n1)N(Cc1cncc(Cl)c1)[C@H](C(F)(F)F)CC2` [SAR405] the “killing by TNFα in multiple mouse and human cancer cell lines” value [1] was “significantly increased”, the “killing by TNFα in multiple mouse and human cancer cell lines” value ([1]; listed as SAR-405) was “sensitizes” and the p62 levels [2] was “significantly increased”. For the same molecule, the “TNFα-induced activation of caspase-8” value [2] was “enhanced” and the “tumor cell killing by human T cells with breast tumor antigen×CD3 bispecific antibody” value [3] was “significantly increased”.

In the case of `Cc1cc(Nc2cc(Cl)nc(Oc3ccc([N+](=O)[O-])cc3)n2)n[nH]1` [autophinib], the “TNFα-mediated killing (relative cell viability)” value ([4]; MC38 cells, 10 ng/ml TNFα, 5 μM autophinib, 16 hours) is reported as “increased”, the “TNFα-mediated degradation of Iκ-Bα” value ([5]; 10 ng/ml TNFα 30 minutes) is reported as “did not affect” and the “TNFα-mediated caspase-8 activation” value ([5]; 10 ng/ml TNFα 4 hours) is reported as “increased”. The “levels of p62” value ([5]; 4 hours) was “significantly increased”, the “killing by TNFα in multiple mouse and human cancer cell lines” value [1] was “significantly increased; also recorded: sensitizes” and the p62 levels [2] was “significantly increased”. The “TNFα-induced activation of caspase-8” value [2] was “enhanced”, the “sensitization to TNFα- and TRAIL-mediated killing” value ([6]; HCT-116 (10 ng/ml TNFα or TRAIL), HeLa (50 ng/ml TRAIL)) was “sensitizes” and the “induction of apoptosis by TRAIL” value ([6]; human cancer cells (HCT-116, HeLa), 10 or 50 ng/ml TRAIL) was “increased”. For the same molecule, the “activation of caspase-8 by TRAIL” value [7] was “increased”.

In the case of `CN1C(=O)C(Cc2c[nH]c3ccccc23)NC1=S` (stereo not drawn) [necropsis inhibitor], the “TNFα-mediated killing in Rb1cc1 KO cells” value ([4]; 24 hours) is reported as “had no effect”.

With `COC(=O)C[C@H](NC(=O)[C@H](C)NC(=O)[C@@H](NC(=O)OCc1ccccc1)C(C)C)C(=O)CF` [z-VAD-FMK] (Cbz-Val-Ala-Asp(OMe)-CH2F) the “TNFα killing of MC38 cells in presence of caspase inhibitor” value ([4]; 25 μM z-VAD-FMK, 10 ng/ml TNFα, 24 hours) was “blocked” and the “TNFα-mediated killing in Rb1cc1 KO cells” value ([4]; 24 hours) was “blocked”.

B1: TNFα: Recombinant mouse and human TNFα from PeproTech (protein)
chain: LRSSSQNSSDKPVAHVVANHQVEEQLEWLSQRANALLANGMDLKDNQLVVPADGLYLVYSQVLFKGQGCPDYVLLTHTVSRFAISYQEKVNLLSAVKSPCPKDTPEGAELKPWYEPIYLGGVFQLEKGDQLSAEVNLPKYLDFAESGQVYFGVIAL
For B1, the “MC38 cell death by soluble TNFα” value ([4]; 10 ng/ml TNFα, 24 hours) was “promoted MC38 cell death”, the “killing by TNFα” value ([8]; CT26, B16F10, 4T1 cells) was “not killed” and the “TNFα-induced caspase-8 activation and apoptosis” value ([8]; EMT6 and MC38 cells) was “exhibited TNFα-induced caspase-8 activation and apoptosis”.
